Experimental data as given in ChEMBL document CHEMBL1201862, “PubChem BioAssay data set” (2004).
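Tested at 5 concentrations; 48 h exposure; 96-well plates; endpoints linearly interpolated, else capped at highest concentration. Here, GI50 denotes the concentration required for 50% inhibition of growth.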 The source made the active and inactive calls. No stated cut-off is given here; in the data, active = GI50 up to about 1.1 µM and inactive = higher.

Key:
Test in all cases: NCI anticancer screen, dose series, 48 h
786-0 = test system: 786-0
A498 = test system: A498
A549 = test system: A549
ACHN = test system: ACHN
CCRF-CEM = test system: CCRF-CEM
COLO 205 = test system: COLO 205
DLD-1 = test system: DLD-1
DMS-114 = test system: DMS-114
DMS-273 = test system: DMS-273
EKVX = test system: EKVX
HCC 2998 = test system: HCC 2998
HCT-15 = test system: HCT-15
HL-60 = test system: HL-60
HOP-62 = test system: HOP-62
HT-29 = test system: HT-29
IGROV-1 = test system: IGROV-1
K562 = test system: K562
KM-20L2 = test system: KM-20L2
KM12 = test system: KM12
LOX IMVI = test system: LOX IMVI
M19-MEL = test system: M19-MEL
MOLT-4 = test system: MOLT-4
Malme-3M = test system: Malme-3M
NCI-H226 = test system: NCI-H226
NCI-H23 = test system: NCI-H23
NCI-H460 = test system: NCI-H460
NCI-H522 = test system: NCI-H522
OVCAR-3 = test system: OVCAR-3
OVCAR-4 = test system: OVCAR-4
OVCAR-5 = test system: OVCAR-5
OVCAR-8 = test system: OVCAR-8
RPMI-8226 = test system: RPMI-8226
RXF 393 = test system: RXF 393
SF-268 = test system: SF-268
SF-295 = test system: SF-295
SF-539 = test system: SF-539
SK-MEL-28 = test system: SK-MEL-28
SK-MEL-2 = test system: SK-MEL-2
SK-MEL-5 = test system: SK-MEL-5
SK-OV-3 = test system: SK-OV-3
SN12C = test system: SN12C
SNB-19 = test system: SNB-19
SNB-75 = test system: SNB-75
SNB-78 = test system: SNB-78
SW-620 = test system: SW-620
TK-10 = test system: TK-10
U-251 = test system: U-251
UACC-257 = test system: UACC-257
UACC-62 = test system: UACC-62
UO-31 = test system: UO-31
XF498 = test system: XF498
CAKI-1 = test system: CAKI-1
HCT-116 = test system: HCT-116
HOP-18 = test system: HOP-18
LXFL 529 = test system: LXFL 529
M14 = test system: M14
SR = test system: SR
HOP-92 = test system: HOP-92

`O=C(Nc1ccccc1SC(/C=C/NNC1=NN=C(c2ccccc2)C(c2ccccc2)N1)c1ccccc1)c1ccc(Cl)cc1Cl` (stereo not drawn) was tested, and the GI50 (786-0) was 37.9 µM (inactive), the GI50 (A498) was 43.5 µM (inactive) and the GI50 (A549) was 38.9 µM (inactive). For the same molecule, the GI50 (ACHN) was 82.8 µM (inactive), the GI50 (CCRF-CEM) was 48.8 µM (inactive) and the GI50 (COLO 205) was > 100 µM (inactive). For the same molecule, the GI50 (DLD-1) was 49.2 µM (inactive), the GI50 (DMS-114) was 45.1 µM (inactive) and the GI50 (DMS-273) was 41.6 µM (inactive). For the same molecule, the GI50 (EKVX) was 37.8 µM (inactive), the GI50 (HCC 2998) was 47 µM (inactive) and the GI50 (HCT-15) was 36 µM. For the same molecule, the GI50 (HL-60) was 35.6 µM (inactive), the GI50 (HOP-62) was 27.3 µM (inactive) and the GI50 (HT-29) was > 100 µM (inactive). For the same molecule, the GI50 (IGROV-1) was 50 µM (inactive), the GI50 (K562) was 60.1 µM (inactive) and the GI50 (KM-20L2) was > 100 µM (inactive). For the same molecule, the GI50 (KM12) was 38.1 µM (inactive), the GI50 (LOX IMVI) was 36.2 µM (inactive) and the GI50 (M19-MEL) was 44.3 µM (inactive). For the same molecule, the GI50 (MOLT-4) was > 10 µM (inactive), the GI50 (Malme-3M) was > 100 µM (inactive) and the GI50 (NCI-H226) was 31.4 µM (inactive). For the same molecule, the GI50 (NCI-H23) was 22.8 µM (inactive), the GI50 (NCI-H460) was 42.7 µM (inactive) and the GI50 (NCI-H522) was > 100 µM (inactive). For the same molecule, the GI50 (OVCAR-3) was 44.5 µM (inactive), the GI50 (OVCAR-4) was 35.9 µM (inactive) and the GI50 (OVCAR-5) was 44.8 µM (inactive). For the same molecule, the GI50 (OVCAR-8) was 74.5 µM (inactive), the GI50 (RPMI-8226) was 58.6 µM (inactive) and the GI50 (RXF 393) was 40.7 µM (inactive). For the same molecule, the GI50 (SF-268) was 35.6 µM (inactive), the GI50 (SF-295) was 25.6 µM (inactive) and the GI50 (SF-539) was 23.3 µM (inactive). For the same molecule, the GI50 (SK-MEL-28) was 38.8 µM (inactive), the GI50 (SK-MEL-2) was 20.9 µM (inactive) and the GI50 (SK-MEL-5) was 42.8 µM (inactive). For the same molecule, the GI50 (SK-OV-3) was 49.3 µM (inactive), the GI50 (SN12C) was 32.6 µM (inactive) and the GI50 (SNB-19) was 80 µM (inactive). The GI50 (SNB-75) was 52.4 µM (inactive), the GI50 (SNB-78) was 87.5 µM (inactive) and the GI50 (SW-620) was > 100 µM (inactive). For the same molecule, the GI50 (TK-10) was > 100 µM (inactive), the GI50 (U-251) was 25.6 µM (inactive) and the GI50 (UACC-257) was > 100 µM (inactive). The GI50 (UACC-62) was 36.8 µM (inactive), the GI50 (UO-31) was 34 µM (inactive) and the GI50 (XF498) was > 10 µM (inactive).
With `Nc1ccn(C2(CO)C=C(CO)C(O)C2O)c(=O)n1` (stereo not drawn) the GI50 (786-0) was > 25.8 µM (inactive), the GI50 (A498) was > 25.8 µM (inactive) and the GI50 (A549) was > 25.8 µM (inactive). For the same molecule, the GI50 (ACHN) was > 25.8 µM (inactive), the GI50 (CAKI-1) was > 25.8 µM (inactive) and the GI50 (COLO 205) was > 25.8 µM (inactive). For the same molecule, the GI50 (DLD-1) was > 25.8 µM (inactive), the GI50 (DMS-114) was > 25.8 µM (inactive) and the GI50 (DMS-273) was > 25.8 µM (inactive). For the same molecule, the GI50 (EKVX) was > 25.8 µM (inactive), the GI50 (HCC 2998) was > 25.8 µM (inactive) and the GI50 (HCT-116) was > 25.8 µM (inactive). For the same molecule, the GI50 (HCT-15) was over 25.8 µM, the GI50 (HL-60) was > 25.8 µM (inactive) and the GI50 (HOP-18) was > 25.8 µM (inactive). The GI50 (HOP-62) was > 25.8 µM (inactive), the GI50 (IGROV-1) was > 25.8 µM (inactive) and the GI50 (K562) was > 25.8 µM (inactive). For the same molecule, the GI50 (KM-20L2) was > 25.8 µM (inactive), the GI50 (KM12) was > 25.8 µM (inactive) and the GI50 (LXFL 529) was > 25.8 µM (inactive). For the same molecule, the GI50 (M14) was > 25.8 µM (inactive), the GI50 (M19-MEL) was > 25.8 µM (inactive) and the GI50 (MOLT-4) was > 25.8 µM (inactive). The GI50 (Malme-3M) was > 25.8 µM (inactive), the GI50 (NCI-H226) was > 25.8 µM (inactive) and the GI50 (NCI-H460) was > 25.8 µM (inactive). The GI50 (NCI-H522) was > 25.8 µM (inactive), the GI50 (OVCAR-3) was > 25.8 µM (inactive) and the GI50 (OVCAR-4) was > 25.8 µM (inactive). The GI50 (OVCAR-8) was > 25.8 µM (inactive), the GI50 (RPMI-8226) was > 25.8 µM (inactive) and the GI50 (RXF 393) was > 25.8 µM (inactive). The GI50 (SF-268) was > 25.8 µM (inactive), the GI50 (SF-539) was > 25.8 µM (inactive) and the GI50 (SK-MEL-28) was > 25.8 µM (inactive). For the same molecule, the GI50 (SK-MEL-2) was > 25.8 µM (inactive), the GI50 (SK-MEL-5) was > 25.8 µM (inactive) and the GI50 (SK-OV-3) was > 25.8 µM (inactive). The GI50 (SN12C) was > 25.8 µM (inactive), the GI50 (SNB-19) was > 25.8 µM (inactive) and the GI50 (SNB-75) was > 25.8 µM (inactive). The GI50 (SNB-78) was > 25.8 µM (inactive), the GI50 (SR) was > 25.8 µM (inactive) and the GI50 (SW-620) was > 25.8 µM (inactive). The GI50 (TK-10) was > 25.8 µM (inactive), the GI50 (U-251) was > 25.8 µM (inactive) and the GI50 (UACC-257) was > 25.8 µM (inactive). The GI50 (UACC-62) was > 25.8 µM (inactive) and the GI50 (UO-31) was > 25.8 µM (inactive).
In the case of `CC(C)(O)/C=C/C(=O)[C@](C)(O)[C@H]1[C@H](O)C[C@@]2(C)[C@@H]3CC=C4[C@@H](C[C@H](O)C(=O)C4(C)C)[C@]3(C)C(=O)C[C@]12C` [CUCURBITACIN D], the GI50 (786-0) is reported as 0.1 µM (active), the GI50 (A498) is reported as 0.0506 µM (active) and the GI50 (A549) is reported as 0.177 µM (active). The GI50 (CAKI-1) was 0.116 µM (active), the GI50 (CCRF-CEM) was 0.0687 µM (active) and the GI50 (COLO 205) was 0.181 µM (active). The GI50 (DLD-1) was 0.0863 µM (active), the GI50 (DMS-114) was 0.199 µM (active) and the GI50 (DMS-273) was 0.034 µM (active). The GI50 (EKVX) was 0.375 µM (active), the GI50 (HCT-116) was 0.112 µM (active) and the GI50 (HL-60) was 0.262 µM (active). For the same molecule, the GI50 (HOP-18) was 0.0748 µM (active), the GI50 (HOP-62) was 0.198 µM (active) and the GI50 (HOP-92) was 0.195 µM (active). For the same molecule, the GI50 (HT-29) was 0.112 µM (active), the GI50 (IGROV-1) was 0.376 µM (active) and the GI50 (K562) was 0.287 µM (active). The GI50 (KM-20L2) was 0.163 µM (active), the GI50 (KM12) was 0.624 µM (active) and the GI50 (LOX IMVI) was 0.0562 µM (active). For the same molecule, the GI50 (LXFL 529) was 0.073 µM (active), the GI50 (M14) was 0.076 µM (active) and the GI50 (M19-MEL) was 0.391 µM (active). The GI50 (MOLT-4) was 0.953 µM (active), the GI50 (Malme-3M) was 0.0679 µM (active) and the GI50 (NCI-H226) was 0.277 µM (active). For the same molecule, the GI50 (NCI-H23) was 1.07 µM (active), the GI50 (NCI-H460) was 0.0895 µM (active) and the GI50 (NCI-H522) was 0.128 µM (active). The GI50 (OVCAR-3) was 0.201 µM (active), the GI50 (OVCAR-5) was 1.04 µM (active) and the GI50 (OVCAR-8) was 0.65 µM (active). The GI50 (RPMI-8226) was 0.0228 µM (active), the GI50 (RXF 393) was 0.0964 µM (active) and the GI50 (SF-268) was 0.104 µM (active). The GI50 (SF-295) was 0.344 µM (active), the GI50 (SF-539) was 0.0826 µM (active) and the GI50 (SK-MEL-28) was 0.0653 µM (active). For the same molecule, the GI50 (SK-MEL-2) was 0.0543 µM (active), the GI50 (SK-OV-3) was 0.281 µM (active) and the GI50 (SN12C) was 0.792 µM (active). The GI50 (SNB-19) was 0.249 µM (active), the GI50 (SNB-75) was 0.59 µM (active) and the GI50 (SNB-78) was 0.0867 µM (active). The GI50 (SR) was 0.118 µM (active), the GI50 (SW-620) was 0.0914 µM (active) and the GI50 (TK-10) was 0.239 µM (active). The GI50 (U-251) was 0.0923 µM (active), the GI50 (UACC-257) was 0.0968 µM (active) and the GI50 (UACC-62) was 0.0438 µM (active). The GI50 (UO-31) was 0.272 µM (active).
